Test results as given in patent US7691875B2, “Imidazopyridine compounds, processes for their preparation and therapeutic uses thereof” (AstraZeneca AB, priority 2003, dated 2010).
Converted amounts (≈) assume the structure as drawn.

Tests used:
[1] = Solubility in Fasted State Simulated Intestinal Fluid (FaSSIF); format: physicochemical; details: thermodynamic from solid, FaSSIF pH 6.5, 37° C., measured after 24 hours
Description: Solubility in Fasted State Simulated Intestinal Fluid (FaSSIF)
The method describes a procedure to measure solubility of solid material in PaSSIF (Fasted State Simulated Intestinal Fluid). The FaSSIF solution is an isotonic phosphate buffer where pH is adjusted to 6.5 to reflect pH in the jejunum. Taurocholic acid and lecithin is added to a concentration of 3 mmol/l and 0.75 mmol/l respectively.
1 mg of solid material, i.e. of the compound of invention, is added to 1 ml FaSSIF solution and equilibrated at 37° C. Samples are withdrawn after 1 and 24 hours. The samples are transferred to eppendorf tubes and spun at 10000 G and 37° C. for 10 minutes. A suitable volume of the supernatant is removed and diluted to a suitable concentration. The concentrations of the compounds in the samples are analysed with LC/UV/MS.

[2] = test system: isolated rabbit gastric glands; experiment: Acid secretion inhibition in isolated rabbit gastric glands; format: cell-based; details: Oryctolagus cuniculus, in vitro
Description: Acid Secretion Inhibition in Isolated Rabbit Gastric Glands
Inhibiting effect on acid secretion in vitro in isolated rabbit gastric glands was measured as
described by Berglindh et al. (1976) Acta Physiol. Scand. 97, 401-414.

H+,K+-ATPase = H+,K+-ATPase (Homo sapiens, UniProt P20648); experiment: Determination of H+,K+-ATPase activity (membrane vesicles, phosphate release); format: biochemical; details: 15 min, 37° C., pH 7.4, 10 mM KCl, 2 mM ATP
H+,K+-ATPase, sequence (P20648 whole entry): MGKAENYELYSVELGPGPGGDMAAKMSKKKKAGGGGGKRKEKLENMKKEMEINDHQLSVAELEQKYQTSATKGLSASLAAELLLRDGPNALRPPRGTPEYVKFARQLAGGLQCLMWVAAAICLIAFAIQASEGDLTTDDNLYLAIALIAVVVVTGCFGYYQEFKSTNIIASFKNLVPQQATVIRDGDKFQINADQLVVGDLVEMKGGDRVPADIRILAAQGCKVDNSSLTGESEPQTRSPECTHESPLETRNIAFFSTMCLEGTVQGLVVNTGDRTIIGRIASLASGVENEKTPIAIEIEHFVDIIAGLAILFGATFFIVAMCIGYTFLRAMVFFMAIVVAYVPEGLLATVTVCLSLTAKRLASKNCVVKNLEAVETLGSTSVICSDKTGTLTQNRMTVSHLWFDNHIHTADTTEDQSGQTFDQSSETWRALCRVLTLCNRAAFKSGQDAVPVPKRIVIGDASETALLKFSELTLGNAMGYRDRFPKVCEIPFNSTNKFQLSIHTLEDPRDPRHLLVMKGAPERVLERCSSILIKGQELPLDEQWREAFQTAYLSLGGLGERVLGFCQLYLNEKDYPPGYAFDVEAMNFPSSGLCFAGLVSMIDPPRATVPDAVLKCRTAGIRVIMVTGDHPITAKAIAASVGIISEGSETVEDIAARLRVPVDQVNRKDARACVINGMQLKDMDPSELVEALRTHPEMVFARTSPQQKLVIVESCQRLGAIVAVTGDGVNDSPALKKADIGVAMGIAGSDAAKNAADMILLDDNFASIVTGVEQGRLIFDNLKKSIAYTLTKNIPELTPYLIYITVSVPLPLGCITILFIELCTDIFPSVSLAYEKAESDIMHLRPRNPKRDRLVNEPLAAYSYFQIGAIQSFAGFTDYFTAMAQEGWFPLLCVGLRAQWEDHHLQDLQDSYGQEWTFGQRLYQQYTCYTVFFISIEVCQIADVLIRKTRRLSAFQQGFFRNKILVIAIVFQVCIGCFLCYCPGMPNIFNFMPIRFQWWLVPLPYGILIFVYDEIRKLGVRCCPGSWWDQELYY
H+,K+-ATPase, sequence (P51164 whole entry partner): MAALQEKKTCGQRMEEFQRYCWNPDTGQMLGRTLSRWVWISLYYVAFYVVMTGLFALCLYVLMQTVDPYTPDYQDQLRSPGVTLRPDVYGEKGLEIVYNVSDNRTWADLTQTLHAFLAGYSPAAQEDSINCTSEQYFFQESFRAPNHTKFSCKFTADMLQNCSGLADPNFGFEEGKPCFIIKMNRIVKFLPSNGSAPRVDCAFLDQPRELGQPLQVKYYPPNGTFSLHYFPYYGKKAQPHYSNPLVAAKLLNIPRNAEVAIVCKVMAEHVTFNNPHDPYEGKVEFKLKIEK
Description: Detennination of H^+,K^+-ATPase Activity
Membrane vesicles (2.5 to 5 μg) were incubated for 15 min at +37° C. in 18 mM Pipes/Tris buffer pH 7.4 containing 2 mM MgCl2, 10 mM KCl and 2 mM ATP. The ATPase activity was estimated as release of inorganic phosphate from ATP, as described by LeBel et al. (1978) Anal. Biochem. 85, 86-89.

[3] = Bioavailability in the conscious dog; format: in vivo; details: plasma
Description: Bioavailabiity is assessed by calculating the quotient between the area under blood/plasma concentration (AUC) curve following (i) intraduodenal (i.d.) or oral (p.o.) administration and (ii) intravenous (i.v.) administration from the rat or the dog, respectively.
The area under the blood concentration vs. time curve, AUC, is determined by the log/linear trapezoidal rule and extrapolated to infinity by dividing the last determined blood concentration by the elimination rate constant in the terminal phase. The systemic bioavailability (F%) following intraduodenal or oral administration is calculated as F(%)=(AUC (p.o. or i.d.)/AUC (i.v.))×100.
(§1) Inhibition of Gastric Acid Secretion and Bioavailability in the Conscious Dog.
Blood samples for the analysis of test compound concentration in plasma are taken at intervals up to 4 h after dosing. Plasma is separated and frozen within 30 min after collection and later analyzed. The systemic bioavailability (F%) after oral or i.d. administration is calculated as described above in the rat model.

[4] = test system: histamine-stimulated acid secretion; experiment: Inhibition of histamine-stimulated gastric acid secretion in the conscious Heidenhain pouch dog; format: in vivo; details: 1-3 hours after dosing, mean n=2
Description: as §1
Labrador retriever or Harrier dogs of either sex are used. They are equipped with a duodenal fistula for the administration of test compounds or vehicle and a cannulated gastric fistula or a Heidenhaim-pouch for the collection of gastric secretion.
Before secretory tests the animals are fasted for about 18 h but water is freely allowed. Gastric acid secretion is stimulated for up to 6.5 h infusion of histamine dihydrochloride (12 ml/h) at a dose producing about 80 % of the individual maximal secretory response, and gastric juice collected in consecutive 30-min fractions. Test substance or vehicle is given orally, i.d. or i.v., 1 or 1.5 h after starting the histamine infusion, in a volume of 0.5 ml/kg body weight. In the case of oral administration, it should be pointed out that the test compound is administered to the acid secreting main stomach of the Heidenham-pouch dog.
The acidity of the gastric juice samples are determined by titration to pH 7.0, and the acid output calculated. The acid output in the collection periods after administration of test substance or vehicle are expressed as fractional responses, setting the acid output in the fraction preceding administration to 1.0. Percentage inhibition is calculated from fractional responses elicited by test compound and vehicle.

Row | SMILES | solubility at 24 h [1] | IC50 [2] | IC50 (H+,K+-ATPase) | bioavailability [3] | mean percentage inhibition of histamine-stimulated acid secretion [4]
1 | CS(=O)(=O)O.Cc1cccc(C)c1CNc1cc(C(=O)NC[C@H](C)O)cn2c(C)c(C)nc12 [8-[(2,6-dimethylbenyl)amino]-N-[(2S)-2-hydroxypropyl]-2,3-dimethylimidazo[1,2-a]pyridine-6-carboxamide mesylate salt] | 218 µM | – | – | – | –
2 | Cc1cccc(C)c1CNc1cc(C(=O)NCCO)cn2c(C)c(C)nc12 [8-[(2,6-dimethylbenzyl)amino]-N-(2-hydroxyethyl)-2,3-dimethylimidazo[1,2-a]pyridine-6-carboxamide, reference compound] | – | 280 nM | 750 nM | 61% | –
3 | Cc1cccc(C)c1CNc1cc(C(=O)NC[C@H](C)O)cn2c(C)c(C)nc12 [compound of the invention, 8-[(2,6-dimethylbenzyl)amino]-N-[(2S)-2-hydroxypropyl]-2,3-dimethylimidazo[1,2-a]pyridine-6-carboxamide] | 48 µM (≈ 18.3 µg/mL) | 260 nM | 690 nM | – | 91%
